Test results reported in article doi:10.1101/2023.11.24.568596v1 (biorxiv, 2023).

What was measured:
Erk7 = biological target: T1, Erk7 (Homo sapiens, UniProt Q8TD08); conditions: binder
T1 sequence (Q8TD08 1-544): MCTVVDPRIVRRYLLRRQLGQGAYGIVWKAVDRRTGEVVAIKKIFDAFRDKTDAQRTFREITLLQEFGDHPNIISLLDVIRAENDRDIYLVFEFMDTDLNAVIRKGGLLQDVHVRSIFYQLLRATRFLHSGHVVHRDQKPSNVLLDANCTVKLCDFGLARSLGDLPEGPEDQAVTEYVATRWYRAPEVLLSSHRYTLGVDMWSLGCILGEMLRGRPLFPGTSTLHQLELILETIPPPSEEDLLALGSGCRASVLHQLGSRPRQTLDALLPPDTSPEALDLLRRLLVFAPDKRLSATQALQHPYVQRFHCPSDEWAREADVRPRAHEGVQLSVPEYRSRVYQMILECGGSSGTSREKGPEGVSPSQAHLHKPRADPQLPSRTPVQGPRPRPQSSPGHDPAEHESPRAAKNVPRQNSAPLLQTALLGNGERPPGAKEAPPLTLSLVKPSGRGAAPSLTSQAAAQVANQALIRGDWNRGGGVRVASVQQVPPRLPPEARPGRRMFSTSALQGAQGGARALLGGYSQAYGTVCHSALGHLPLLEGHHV

MST3 = MST3 (Homo sapiens, UniProt Q9Y6E0); conditions: binder
Sequence of MST3 (Q9Y6E0 whole entry): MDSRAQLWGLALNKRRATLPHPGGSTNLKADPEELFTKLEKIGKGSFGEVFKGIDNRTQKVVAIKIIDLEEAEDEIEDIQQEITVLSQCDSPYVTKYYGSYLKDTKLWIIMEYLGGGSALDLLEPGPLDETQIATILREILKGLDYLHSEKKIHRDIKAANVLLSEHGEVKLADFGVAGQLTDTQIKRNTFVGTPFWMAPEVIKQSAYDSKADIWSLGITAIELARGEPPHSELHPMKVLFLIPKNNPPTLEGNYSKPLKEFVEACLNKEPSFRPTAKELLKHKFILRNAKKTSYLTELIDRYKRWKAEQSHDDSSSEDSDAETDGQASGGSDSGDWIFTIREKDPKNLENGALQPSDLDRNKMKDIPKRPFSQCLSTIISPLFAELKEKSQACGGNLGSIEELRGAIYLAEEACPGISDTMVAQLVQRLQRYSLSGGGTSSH

SMILES: COc1ccc(O)c(Nc2ncc3cc(-c4ccc(-c5cccc(C)n5)cc4Cl)c(=O)n(CCCCN)c3n2)c1 [compound 34, 8-(4-Aminobutyl)-6-(2-chloro-4-(6-methylpyridin-2-yl)phenyl)-2-((2-hydroxy-5-methoxy-phenyl)amino)pyrido[2,3-d]pyrimidin-7(8H)-one]
- dTm 34 (Erk7): -0.4 °C

SMILES: Cc1cccc(-c2ccc(-c3cc4cnc(Nc5ccc(F)c(CO)c5)nc4n(CCCCN)c3=O)c(Cl)c2)n1 [compound 33, 8-(4-Aminobutyl)-6-(2-chloro-4-(6-methylpyridin-2-yl)phenyl)-2-((4-fluoro-3-(hydroxymethyl)phenyl)amino)pyrido[2,3-d]pyrimidin-7(8H)-one]
- dTm 33 (Erk7): 1.6 °C

SMILES: COc1cc(N2CCOCC2)ccc1Nc1ncc2cc(-c3ccc(-c4cccc(C)n4)cc3Cl)c(=O)n(CCCCN)c2n1 [compound 35, 8-(4-Aminobutyl)-6-(2-chloro-4-(6-methylpyridin-2-yl)phenyl)-2-((2-methoxy-4-morpholino-phenyl)amino)pyrido[2,3-d]pyrimidin-7(8H)-one]
- dTm 35 (Erk7): 1.1 °C

SMILES: CNc1ncc2cc(-c3ccc(-c4cccc(C)n4)cc3Cl)c(=O)n(C[C@H]3CC[C@H](N)CC3)c2n1 [compound 23, 23]
- dTm MST3 (MST3): 10.8 °C

SMILES: COc1cc(N2CCN(C)CC2)ccc1Nc1ncc2cc(-c3ccc(-c4cccc(C)n4)cc3Cl)c(=O)n(CCCCN)c2n1 [compound 36, 8-(4-Aminobutyl)-6-(2-chloro-4-(6-methylpyridin-2-yl)phenyl)-2-((2-methoxy-4-(4-methylpiperazin-1-yl)phenyl)amino)pyrido[2,3-d]pyrimidin-7(8H)-one]
- dTm 36 (Erk7): -0.5 °C

SMILES: CNc1ncc2cc(-c3ccc(-c4cccc(C)n4)cc3Cl)c(=O)n(CCC3CCNCC3)c2n1 [compound 22, 6-(2-Chloro-4-(6-methylpyridin-2-yl)phenyl)-2-(methylamino)-8-(2-(piperidin-4-yl)ethyl)pyrido[2,3-d]pyrimidin-7(8H)-one]
- dTm MST3 (MST3): 10.5 °C

SMILES: CNc1ncc2cc(-c3ccc(-c4cccc(C)n4)cc3Cl)c(=O)n(CCCCN)c2n1 [compound 20, MRLW5]
- dTm MST3 (MST3): 11.7 °C
